What all share (experiment): DTP human tumour cell line panel, 48 h
Assay [1] deals with MDA-MB-435.
The subject of assay [2] is NCI-H226.
In assay [3] the test system is OVCAR-8.
The subject of assay [4] is UACC-257.
In assay [5] the test system is KM12.
For assay [6], the system named is HOP-62.
Assay [7] concerns SF-295.
Assay [8] has as its system NCI-H23.
In assay [9] the test system is SNB-19.
Assay [10] has as its system UACC-62.
Assay [11] deals with HOP-92.
For assay [12], the system named is MDA-N.
Assay [13] has as its system OVCAR-4.
In assay [14] the test system is T47D.
Assay [15] deals with ACHN.
In assay [16] the test system is HL-60.
The subject of assay [17] is SF-539.
Assay [18] has as its system CCRF-CEM.
For assay [19], the system named is DU-145.
The subject of assay [20] is SNB-75.

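The compound was tested at five concentrations on cells cultured in 96-well plates, with a 48-hour exposure period. GI50 marks 50% less growth.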 Active and inactive are the calls of the source. Rule as the data show it: active = GI50 up to about 1.1 µM and inactive = higher.

As a reminder, the GI50 is the concentration at which growth is held to half of that of the control. As for `Cc1ncc(COP(=O)(O)O)c(C)c1O`, the GI50 in assay [1], in assay [2], in assay [3], in [4], in [5] and in assay [6] was > 100 µM (inactive) each time. The GI50 in assay [7], in [8], in [9], in [10], in assay [11] and in [12] was > 100 µM (inactive) in each case. Moreover, the GI50 in [13], in assay [14], in [15] and in [16] was > 100 µM (inactive) in each case.

As for `COc1nc(OC)nc(-c2cccc(F)c2)n1`, the GI50 was 15 µM (inactive) in [1]; 13.4 µM (inactive) in assay [2]; 17.4 µM (inactive) in assay [17]; 23.4 µM (inactive) in [3]; 9.2 µM (inactive) in assay [18]; 14.3 µM (inactive) in assay [4]. Besides, the GI50 in assay [5] is 15.7 µM (inactive); in assay [6], 20.4 µM (inactive); in [19], 13.2 µM (inactive); in assay [7], 13.4 µM (inactive); in assay [8], 12 µM (inactive); in assay [9] it was 16.9 µM (inactive). In addition, the GI50 is 8.51 µM (inactive) in [10]; 21.2 µM (inactive) in assay [20]; 6.41 µM (inactive) in assay [11]; 15.7 µM (inactive) in [13]; 13.2 µM (inactive) in [14]; 16.4 µM (inactive) in assay [15]. Moreover, in assay [16], the GI50 is 24.3 µM (inactive).

As to `Oc1ccc(Cl)cc1C1=NC(NCN2CCN(CNC3=NC(c4ccccc4)CC(c4cc(Cl)ccc4O)=N3)CC2)=NC(c2ccccc2)C1` (stereo not given), the GI50 in assay [1] was 48.6 µM (inactive); in [2], 53.8 µM (inactive); in assay [17], 72.1 µM (inactive); in [3] it was 31.8 µM (inactive); in assay [18] it was 21.5 µM (inactive); in assay [4], > 100 µM (inactive). Further, the GI50 in assay [5] was 37.1 µM (inactive); in assay [6], 42.2 µM (inactive); in assay [19], 41.8 µM (inactive); in assay [7], 32.3 µM (inactive); in [8], 46.6 µM (inactive); in [9] it was 41.6 µM (inactive). Also, the GI50 in assay [10] was 45 µM (inactive); in assay [20] it was 35.6 µM (inactive); in assay [11] it was 58.2 µM (inactive); in assay [12] it was 50.2 µM (inactive); in [13] it was 28.9 µM (inactive); in assay [15] it was 24.8 µM (inactive). The GI50 in [16] is 28.4 µM (inactive).

Consider `CC1(C)S[C@H](CN)N[C@H]1C(=O)OC(c1ccccc1)c1ccccc1`, for which the GI50 in [1] is 30.3 µM (inactive); in [2], > 100 µM (inactive); in assay [3], 57.9 µM (inactive); in assay [4], 17.4 µM (inactive); in [5] it was 38.5 µM (inactive); in assay [6], 49.9 µM (inactive). In addition, the GI50 in assay [19] was > 100 µM (inactive); in assay [7], 41.7 µM (inactive); in [8], 48.3 µM (inactive); in [10], 22.9 µM (inactive); in [20], 84.3 µM (inactive); in assay [11], 16.7 µM (inactive). The GI50 was 27.3 µM (inactive) in assay [13], 27.9 µM (inactive) in assay [14], 84.3 µM (inactive) in assay [15] and 16.7 µM (inactive) in assay [16].

`O=C1C(NCCc2cc(Cl)c(O)c(Cl)c2)=CC(=O)c2[nH]cnc21`: the GI50 in assay [1] was 16.7 µM (inactive); in assay [17], 39.5 µM (inactive); in assay [3] it was 32.2 µM (inactive); in assay [4], 26 µM (inactive); in assay [5], 35.5 µM (inactive); in [6], 44 µM (inactive). Also, the GI50 is 18 µM (inactive) in [7]; 17.9 µM (inactive) in assay [8]; 33.7 µM (inactive) in assay [9]; 18.8 µM (inactive) in assay [10]; 19.6 µM (inactive) in [12]; 21.7 µM (inactive) in [14]. Moreover, the GI50 is 47 µM (inactive) in assay [15] and 17.4 µM (inactive) in assay [16].

Consider `CC(=O)/C=C(/C=N/O)c1ccccc1`, for which the GI50 in [1], in assay [2], in assay [17], in assay [3], in [18] and in assay [4] was > 100 µM (inactive) in each case. Moreover, the GI50 in assay [5], in [6], in assay [7], in assay [8], in assay [9] and in assay [10] was > 100 µM (inactive) each time. Also, the GI50 in assay [20] was 56 µM (inactive); in assay [12] it was > 100 µM (inactive); in assay [13], > 100 µM (inactive); in assay [14], > 100 µM (inactive); in assay [15], > 100 µM (inactive).

In the case of `COc1ccc(N2C(=O)C3ON(C(C(N)=O)c4ccccc4)C(c4ccc(-c5ccccc5)cc4)C3C2=O)cc1` (stereo not given), the GI50 was > 50 µM (inactive) in [1]; > 50 µM (inactive) in assay [2]; > 50 µM (inactive) in [17]; > 50 µM (inactive) in assay [3]; 10.2 µM (inactive) in assay [18]; > 50 µM (inactive) in assay [4]. Moreover, the GI50 in assay [5], in [6], in [19], in assay [7], in assay [8] and in assay [9] was > 50 µM (inactive) in each case. For the same compound, the GI50 in assay [10], in [20], in assay [13], in assay [14], in assay [15] and in [16] was > 50 µM (inactive) in each case.

For the compound `CN(C)C(=O)C(F)(F)C(c1ccc(C(F)(F)F)cc1)C1C(=O)N(C)C(=O)N(C)C1=O` (stereo not given), the GI50 in [1], in [2], in [18], in assay [4], in assay [5] and in assay [6] was > 100 µM (inactive) in each case. Further, the GI50 in assay [19], in assay [7], in [8], in [9], in [10] and in assay [20] was > 100 µM (inactive) each time. For the same compound, the GI50 in [11], in assay [13], in [14] and in [15] was > 100 µM (inactive) in each case.

Regarding `CC(=O)C1=C(C)N(c2ccccc2)C2(O)C=CC(O)=C3C(=O)c4ccccc4C(=O)C312` (stereo not given), the GI50 is 2.45 µM (inactive) in assay [1]; 25.5 µM (inactive) in assay [2]; 21.1 µM (inactive) in [17]; 9.18 µM (inactive) in assay [3]; 3.73 µM (inactive) in assay [18]; 5.65 µM (inactive) in [4]. Also, the GI50 was 13.5 µM (inactive) in [5]; 32.9 µM (inactive) in assay [6]; 9.04 µM (inactive) in assay [19]; 14.9 µM (inactive) in assay [7]; 15.8 µM (inactive) in [8]; 17.1 µM (inactive) in [9]. Besides, the GI50 in [10] is 15.6 µM (inactive); in assay [20] it was 35.2 µM (inactive); in [11] it was 25.6 µM (inactive); in assay [13] it was 20.9 µM (inactive); in assay [14], 8.75 µM (inactive); in [15] it was 11.4 µM (inactive). Also, the GI50 in assay [16] is 5.69 µM (inactive).

As to `COc1cc(NS(C)(=O)=O)ccc1NCc1c[nH]c2ccc3ncccc3c12`, the GI50 in assay [1] was 19.3 µM (inactive); in assay [2], 12.3 µM (inactive); in assay [17] it was 19.3 µM (inactive); in assay [3], 25 µM (inactive); in assay [18] it was 1.83 µM (inactive); in assay [4] it was 17 µM (inactive). The GI50 in [5] is 17.1 µM (inactive); in [6], 22.2 µM (inactive); in assay [19] it was 23.9 µM (inactive); in assay [7], 18.5 µM (inactive); in assay [8], 20.4 µM (inactive); in assay [9], 30.1 µM (inactive). In addition, the GI50 in [10] was 17.3 µM (inactive); in [20] it was 14.3 µM (inactive); in assay [11], 33 µM (inactive); in assay [13], 20.7 µM (inactive); in assay [14] it was 10.9 µM (inactive); in [15] it was 21 µM (inactive). The concentration for 50% growth inhibition (GI50) in [16] is 0.871 µM (active).

Turning to `C1=CN2C[n+]3cccc(OCc4ccccc4)c3N=C2C(OCc2ccccc2)=C1`, the GI50 was 14.4 µM (inactive) in [1]; 29.4 µM (inactive) in assay [2]; 4.25 µM (inactive) in assay [17]; 17.4 µM (inactive) in assay [3]; 8.71 µM (inactive) in assay [4]; 17.6 µM (inactive) in [6]. Also, the GI50 in assay [19] was 6.92 µM (inactive); in [7], 6.84 µM (inactive); in [8], 10.3 µM (inactive); in assay [9] it was 5.18 µM (inactive); in [10] it was 11.9 µM (inactive); in [20] it was 20.1 µM (inactive). For the same compound, the GI50 in [11] is 12.5 µM (inactive); in [13], 4.81 µM (inactive); in [14], 12.8 µM (inactive); in assay [15], > 100 µM (inactive); in assay [16] it was 0.142 µM (active).

(Values after ChEMBL document CHEMBL1201862, “PubChem BioAssay data set” (2004).)
